ChEMBL document CHEMBL5512689, “Discovery of Clinical Candidate PF-06648671: A Potent γ-Secretase Modulator for the Treatment of Alzheimer's Disease” (J Med Chem, 2024)
Converted amounts (≈) assume the structure as drawn. One block for each compound: values may come before it.

Key:
[1] = Drug penetration in rat assessed as Unbound brain-to-plasma concentration ratio; format: ADME, cell-free; settings: read-out: K(p,uu,brain)
[2] = Drug penetration in Non human primate assessed as unbound brain-to-plasma concentration ratio; format: ADME, cell-free; settings: primates, read-out: K(p,uu,brain)
[3] = Volume of distribution at steady state in dog at 1 mg/kg, iv; format: ADME, organism-based, Canis lupus familiaris; settings: in vivo, read-out: Vdss
[4] = Kinetic solubility of compound at pH 6.5; format: physicochemical; settings: buffer, read-out: Kinetic_solubility
[5] = Oral bioavailability in rat at 5 mg/kg; format: ADME, organism-based; settings: in vivo
[6] = Oral bioavailability in human at 5 mg/kg; format: ADME, organism-based; settings: in vivo
[7] = Volume of distribution at steady state in human at 1 mg/kg, iv; format: ADME, organism-based; settings: in vivo, read-out: Vdss
[8] = Lipophilicity, log D of the compound by shake flask method; format: physicochemical; settings: octanol/water
[9] = Oral bioavailability in dog at 5 mg/kg; format: ADME, organism-based, Canis lupus familiaris; settings: in vivo
[10] = Volume of distribution at steady state in rat at 1 mg/kg, iv; format: ADME, organism-based; settings: in vivo, read-out: Vdss
[11] = Ratio of drug concentration in brain to plasma in rat at 10 mg/kg, po; format: ADME, organism-based; settings: read-out: BPR
[12] = Apparent permeability across apical to basolateral side in dog RRCK cells; format: ADME, cell-based, Canis lupus familiaris, MDCKII-LE; settings: MDCK
[13] = Lipophilicity, log D of the compound; format: physicochemical; settings: octanol/water
[14] = Drug penetration in human assessed as Unbound brain-to-plasma concentration ratio; format: ADME, cell-free; settings: read-out: K(p,uu,brain)

Kp uu [2]: 1 | Kp uu [1]: 0.5
SMILES: Cc1cn(-c2ccc3n(c2=O)CCN([C@@H](C)[C@@H]2CC[C@H](c4ccc(Cl)cc4C(F)(F)F)O2)C3=O)cn1

Vd [3]: 0.7 L/kg | solubility kinetic [4]: 44.8 µM (≈ 24.1 µg/mL) | bioavailability [5]: 67% | bioavailability [6]: 60% | Vd [7]: 1.3 L/kg | logD [8]: 4.2 | Kp uu [1]: 0.7 | bioavailability [9]: 88% | Vd [10]: 0.8 L/kg | Kp [11]: 1.5 | Papp A→B [12]: 5.8 ×10⁻⁶ cm/s | logD [13]: 5 | Kp uu [14]: 1
SMILES: Cc1cn(-c2ccc3n(c2=O)CCN([C@@H](C)[C@@H]2CC[C@H](c4cc(F)c(Cl)cc4C(F)(F)F)O2)C3=O)cn1

More lines, now with the values behind:

SMILES: Cc1cn(-c2ccc3n(c2=O)CCN([C@@H](C)[C@@H]2CC[C@H](c4ccc(C(F)(F)F)c(F)c4F)O2)C3=O)cn1
Kp uu [1]: 0.5

SMILES: Cc1cn(-c2ccc3n(c2=O)CCN([C@@H](C)[C@@H]2CC[C@H](c4ccc(C(F)(F)F)cc4)O2)C3=O)cn1
Kp uu [1]: 0.5

SMILES: Cc1cn(-c2ccc3n(c2=O)CCN([C@@H](C)[C@@H]2CC[C@H](c4cc(F)c(C(F)(F)F)c(F)c4)O2)C3=O)cn1
Kp uu [1]: 0.08
